Assay results as given in publication PMC5933782, “Molecular structures of cdc2-like kinases in complex with a new inhibitor chemotype” (PLoS ONE, 2018).

Key:
Experiment in all cases: radiometric protein kinase assay
CDK1/cyclin B = assay type: biochemical, starfish; settings: for IC50: 15 μmol/L ATP; for Residual enzyme activity CDK1/cyclin B: 10 µM concentration, ± SEM
CDK2/cyclin A = molecular target: T1, CDK2/cyclin A (Homo sapiens, UniProt P24941); assay type: biochemical; settings: for IC50: 15 μmol/L ATP, read-out: IC50 CDK2/cyclinA; for Residual enzyme activity CDK2/cyclin A: 10 µM concentration, ± SEM
T1 construct: made in house

CDK5/p25 = molecular target: T2, CDK5/p25 (Homo sapiens, UniProt Q00535); assay type: biochemical; settings: for IC50: 15 μmol/L ATP; for Residual enzyme activity CDK5/p25: 10 µM concentration, ± SEM
T2 construct: made in house

CK1δ/ε = assay type: biochemical, porcine; settings: for IC50: 15 μmol/L ATP, read-out: IC50 CK1; for Residual enzyme activity CK1: 10 µM concentration, ± SEM
DYRK1A = DYRK1A (Homo sapiens, UniProt Q13627); assay type: biochemical; settings: for IC50: 15 μmol/L ATP, read-out: IC50 DYRK 1A; for Residual enzyme activity DYRK 1A: 10 µM concentration, ± SEM
DYRK1B = DYRK1B (Homo sapiens, UniProt Q9Y463); assay type: biochemical; settings: for IC50: 15 μmol/L ATP, read-out: IC50 DYRK 1B; for Residual enzyme activity DYRK 1B: 10 µM concentration, ± SEM
DYRK2 = molecular target: T3, DYRK2 (Homo sapiens, UniProt Q92630); assay type: biochemical; settings: for IC50: 15 μmol/L ATP, read-out: IC50 DYRK 2; for Residual enzyme activity DYRK 2: 10 µM concentration, ± SEM
T3 sequence (Q92630 1-601): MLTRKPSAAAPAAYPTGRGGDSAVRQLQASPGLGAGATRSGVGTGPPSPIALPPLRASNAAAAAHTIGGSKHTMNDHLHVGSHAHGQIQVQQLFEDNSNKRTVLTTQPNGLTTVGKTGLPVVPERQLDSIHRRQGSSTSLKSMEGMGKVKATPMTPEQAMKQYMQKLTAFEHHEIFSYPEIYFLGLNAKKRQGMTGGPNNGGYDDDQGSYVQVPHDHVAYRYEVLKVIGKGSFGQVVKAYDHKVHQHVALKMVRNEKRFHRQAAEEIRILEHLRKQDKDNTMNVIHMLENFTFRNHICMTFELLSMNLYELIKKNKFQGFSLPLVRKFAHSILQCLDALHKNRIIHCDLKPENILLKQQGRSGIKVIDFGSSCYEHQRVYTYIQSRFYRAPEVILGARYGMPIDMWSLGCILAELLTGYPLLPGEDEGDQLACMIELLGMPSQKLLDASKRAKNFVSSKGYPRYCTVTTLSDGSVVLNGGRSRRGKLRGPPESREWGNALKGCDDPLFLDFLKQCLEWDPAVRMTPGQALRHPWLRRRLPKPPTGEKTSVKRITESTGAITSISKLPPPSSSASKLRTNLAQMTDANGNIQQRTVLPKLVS

DYRK3 = molecular target: T4, DYRK3 (Homo sapiens, UniProt O43781); assay type: biochemical; settings: for IC50: 15 μmol/L ATP, read-out: IC50 DYRK 3; for Residual enzyme activity DYRK 3: 10 µM concentration, ± SEM
T4 sequence (O43781 1-588): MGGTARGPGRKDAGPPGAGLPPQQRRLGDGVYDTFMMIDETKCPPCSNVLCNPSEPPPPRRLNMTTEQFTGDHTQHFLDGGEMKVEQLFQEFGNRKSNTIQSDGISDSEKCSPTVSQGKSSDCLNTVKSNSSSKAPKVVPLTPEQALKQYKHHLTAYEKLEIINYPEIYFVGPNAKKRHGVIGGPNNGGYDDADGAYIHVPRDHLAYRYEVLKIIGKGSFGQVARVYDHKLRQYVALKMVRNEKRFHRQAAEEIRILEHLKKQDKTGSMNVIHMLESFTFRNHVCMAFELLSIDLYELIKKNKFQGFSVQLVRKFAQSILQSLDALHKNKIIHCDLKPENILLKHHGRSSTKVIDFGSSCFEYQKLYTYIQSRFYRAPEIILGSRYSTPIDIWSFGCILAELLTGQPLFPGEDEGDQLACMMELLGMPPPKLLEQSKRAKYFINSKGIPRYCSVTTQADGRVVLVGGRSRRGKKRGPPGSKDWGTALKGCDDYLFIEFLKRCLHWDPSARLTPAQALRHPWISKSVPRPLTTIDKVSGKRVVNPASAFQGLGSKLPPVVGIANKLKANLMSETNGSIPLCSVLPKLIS

GSK-3 = assay type: biochemical, porcine; settings: for IC50: 15 μmol/L ATP, read-out: IC50 GSK3; for Residual enzyme activity GSK3: 10 µM concentration, ± SEM
CDK9/cyclin T = CDK9/cyclin T (Homo sapiens, UniProt P50750); settings: for Residual enzyme activity CDK9/cyclin T: 10 µM concentration, ± SEM
CLK1 = CLK1 (Mus musculus, UniProt P22518); settings: for Residual enzyme activity CLK 1: 10 µM concentration, ± SEM
Method: Buffer A: 10 mM MgCl2, 1 mM EGTA, 1 mM DTT, 25 mM Tris-HCl pH 7.5, 50 μg heparin/mL. Buffer C: 60 mM β-glycerophosphate, 15 mM p-nitrophenylphosphate, 25 mM MOPS (pH 7.2), 15 mM EGTA, 15 mM MgCl2, 1 mM DTT, 1 mM sodium vanadate, 1 mM phenylphosphate.
Controls were performed with appropriate dilutions of DMSO. The GS-1, CKS, CDK7/9 tide and RS peptide substrates were obtained from Proteogenix (Oberhausbergen, France).
CDK1/cyclin B (M phase starfish oocytes, native), CDK2/cyclin A and CDK5/p25 (human, recombinant) were prepared as previously described [33]. […] ATP (3,000 Ci/mmol; 10 mCi/mL) in a final volume of 30 μL. After 30 min incubation at 30°C, the reaction was stopped by harvesting onto P81 phosphocellulose supernatant (Whatman) using a FilterMate harvester (Packard) and washing in 1% phosphoric acid. Scintillation fluid was added and the radioactivity measured in a Packard counter.
(§1) All data points for construction of dose response curves were recorded in triplicate.

CLK2 = CLK2 (Mus musculus, UniProt O35491); settings: for Residual enzyme activity CLK 2: 10 µM concentration, ± SEM
CLK3 = CLK3 (Mus musculus, UniProt O35492); settings: for Residual enzyme activity CLK 3: 10 µM concentration, ± SEM
CLK4 = CLK4 (Mus musculus, UniProt O35493); settings: for Residual enzyme activity CLK 4: 10 µM concentration, ± SEM
Chain of CLK4 (O35493 whole entry): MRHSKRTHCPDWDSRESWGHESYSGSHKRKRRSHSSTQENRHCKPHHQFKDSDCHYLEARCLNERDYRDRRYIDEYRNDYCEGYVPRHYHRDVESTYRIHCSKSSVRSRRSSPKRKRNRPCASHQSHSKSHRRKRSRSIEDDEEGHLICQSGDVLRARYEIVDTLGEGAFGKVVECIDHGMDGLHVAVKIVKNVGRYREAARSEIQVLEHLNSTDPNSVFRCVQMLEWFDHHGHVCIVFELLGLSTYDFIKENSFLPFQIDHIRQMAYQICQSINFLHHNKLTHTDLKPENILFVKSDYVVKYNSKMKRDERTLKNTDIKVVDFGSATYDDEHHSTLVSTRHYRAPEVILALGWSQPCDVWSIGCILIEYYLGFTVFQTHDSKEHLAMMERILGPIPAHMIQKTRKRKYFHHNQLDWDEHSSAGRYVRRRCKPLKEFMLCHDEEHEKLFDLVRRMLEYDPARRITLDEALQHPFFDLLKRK
Method: Buffers. Buffer A: 10 mM MgCl2, 1 mM EGTA, 1 mM DTT, 25 mM Tris-HCl pH 7.5, 50 μg heparin/mL. Buffer C: 60 mM β-glycerophosphate, 15 mM p-nitrophenylphosphate, 25 mM MOPS (pH 7.2), 15 mM EGTA, 15 mM MgCl2, 1 mM DTT, 1 mM sodium vanadate, 1 mM phenylphosphate.
Kinase activities were assayed in buffer A or C at 30°C at a final ATP concentration of 15 μmol/L. Blank values were subtracted and activities were expressed in percent of the maximal activity, i.e. in the absence of inhibitors. Controls were performed with appropriate dilutions of DMSO.
Their kinase activity was assayed in buffer A, with 1 mg histone H1/mL, in the presence of 15 μmol/L [γ-33P] ATP (3,000 Ci/mmol; 10 mCi/mL) in a final volume of 30 μL. After 30 min incubation at 30°C, the reaction was stopped by harvesting onto P81 phosphocellulose supernatant (Whatman) using a FilterMate harvester (Packard) and washing in 1% phosphoric acid. Scintillation fluid was added and the radioactivity measured in a Packard counter.
as §1

Chain of CLK2 (O35491 whole entry): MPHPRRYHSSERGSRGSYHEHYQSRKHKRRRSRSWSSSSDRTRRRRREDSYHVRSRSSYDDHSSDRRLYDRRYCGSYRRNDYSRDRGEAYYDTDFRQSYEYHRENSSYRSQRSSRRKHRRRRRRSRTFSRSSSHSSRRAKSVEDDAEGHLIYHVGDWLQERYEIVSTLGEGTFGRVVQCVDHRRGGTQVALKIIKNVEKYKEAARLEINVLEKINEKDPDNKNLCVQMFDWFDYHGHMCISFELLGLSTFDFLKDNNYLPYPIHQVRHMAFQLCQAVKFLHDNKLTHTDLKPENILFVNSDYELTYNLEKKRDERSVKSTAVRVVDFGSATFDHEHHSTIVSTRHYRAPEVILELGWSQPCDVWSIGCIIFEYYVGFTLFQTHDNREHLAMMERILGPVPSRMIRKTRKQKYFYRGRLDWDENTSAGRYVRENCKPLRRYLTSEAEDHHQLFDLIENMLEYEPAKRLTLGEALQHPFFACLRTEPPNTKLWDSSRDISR
Chain of DYRK1B (Q9Y463 whole entry): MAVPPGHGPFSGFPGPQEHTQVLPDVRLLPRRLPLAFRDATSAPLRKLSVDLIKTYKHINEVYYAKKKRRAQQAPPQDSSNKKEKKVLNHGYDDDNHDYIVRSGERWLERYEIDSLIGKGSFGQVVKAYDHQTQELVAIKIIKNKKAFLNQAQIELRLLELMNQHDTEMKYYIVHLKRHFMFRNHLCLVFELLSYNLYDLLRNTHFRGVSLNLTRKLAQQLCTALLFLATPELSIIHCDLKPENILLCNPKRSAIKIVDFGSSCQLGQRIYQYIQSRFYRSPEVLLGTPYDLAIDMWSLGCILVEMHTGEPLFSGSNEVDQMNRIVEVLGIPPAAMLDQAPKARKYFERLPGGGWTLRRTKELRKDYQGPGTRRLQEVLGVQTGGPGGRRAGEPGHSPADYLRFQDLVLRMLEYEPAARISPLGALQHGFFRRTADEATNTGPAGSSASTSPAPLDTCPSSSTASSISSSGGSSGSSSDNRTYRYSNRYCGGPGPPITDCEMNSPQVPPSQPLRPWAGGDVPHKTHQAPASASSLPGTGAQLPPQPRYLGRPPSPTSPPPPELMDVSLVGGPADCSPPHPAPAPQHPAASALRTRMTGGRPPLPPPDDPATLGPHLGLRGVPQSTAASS
Chain of CDK9/cyclin T (P50750 whole entry): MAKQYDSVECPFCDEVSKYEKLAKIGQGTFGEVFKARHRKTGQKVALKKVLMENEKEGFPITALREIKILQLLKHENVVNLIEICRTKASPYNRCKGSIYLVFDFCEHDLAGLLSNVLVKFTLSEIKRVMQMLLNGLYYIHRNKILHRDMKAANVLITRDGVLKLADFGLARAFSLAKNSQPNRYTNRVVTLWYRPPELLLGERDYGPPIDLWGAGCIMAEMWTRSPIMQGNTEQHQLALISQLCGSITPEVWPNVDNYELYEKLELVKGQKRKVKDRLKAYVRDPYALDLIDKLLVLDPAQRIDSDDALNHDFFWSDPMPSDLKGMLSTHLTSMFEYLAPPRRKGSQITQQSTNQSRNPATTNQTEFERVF
Chain of CDK9/cyclin T (O60563 whole entry partner): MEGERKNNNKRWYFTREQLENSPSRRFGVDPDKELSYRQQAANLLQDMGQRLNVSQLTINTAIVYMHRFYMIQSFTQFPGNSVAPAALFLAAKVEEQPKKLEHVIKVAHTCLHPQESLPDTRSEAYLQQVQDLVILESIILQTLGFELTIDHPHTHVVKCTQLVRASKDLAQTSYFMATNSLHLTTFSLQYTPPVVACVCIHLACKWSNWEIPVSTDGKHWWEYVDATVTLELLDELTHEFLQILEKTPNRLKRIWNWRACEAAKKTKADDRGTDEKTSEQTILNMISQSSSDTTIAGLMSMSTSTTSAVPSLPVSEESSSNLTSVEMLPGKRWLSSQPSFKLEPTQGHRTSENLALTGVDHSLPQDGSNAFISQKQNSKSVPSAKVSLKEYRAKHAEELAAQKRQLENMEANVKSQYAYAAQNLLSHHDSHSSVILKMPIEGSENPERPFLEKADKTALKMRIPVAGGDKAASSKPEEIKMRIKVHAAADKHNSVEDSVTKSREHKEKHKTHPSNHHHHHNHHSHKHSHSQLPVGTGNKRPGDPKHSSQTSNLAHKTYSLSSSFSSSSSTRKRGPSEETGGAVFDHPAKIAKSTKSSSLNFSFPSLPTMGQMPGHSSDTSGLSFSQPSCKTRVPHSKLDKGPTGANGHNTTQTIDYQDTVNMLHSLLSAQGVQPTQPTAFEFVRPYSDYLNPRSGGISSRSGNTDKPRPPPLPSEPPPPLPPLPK
Chain of CLK1 (P22518 whole entry): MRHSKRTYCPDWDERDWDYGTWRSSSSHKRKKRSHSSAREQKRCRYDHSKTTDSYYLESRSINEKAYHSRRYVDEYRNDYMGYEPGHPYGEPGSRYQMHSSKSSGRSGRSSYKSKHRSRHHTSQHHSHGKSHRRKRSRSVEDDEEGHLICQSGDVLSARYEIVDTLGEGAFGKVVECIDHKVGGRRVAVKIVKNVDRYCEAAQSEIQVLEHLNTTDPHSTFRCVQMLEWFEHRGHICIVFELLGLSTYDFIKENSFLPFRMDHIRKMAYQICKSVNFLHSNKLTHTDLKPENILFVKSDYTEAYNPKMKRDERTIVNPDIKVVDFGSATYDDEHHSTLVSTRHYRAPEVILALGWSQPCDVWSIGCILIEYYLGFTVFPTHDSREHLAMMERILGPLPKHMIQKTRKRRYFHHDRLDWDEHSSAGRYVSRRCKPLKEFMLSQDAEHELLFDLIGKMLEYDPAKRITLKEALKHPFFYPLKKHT
Chain of CLK3 (O35492 whole entry): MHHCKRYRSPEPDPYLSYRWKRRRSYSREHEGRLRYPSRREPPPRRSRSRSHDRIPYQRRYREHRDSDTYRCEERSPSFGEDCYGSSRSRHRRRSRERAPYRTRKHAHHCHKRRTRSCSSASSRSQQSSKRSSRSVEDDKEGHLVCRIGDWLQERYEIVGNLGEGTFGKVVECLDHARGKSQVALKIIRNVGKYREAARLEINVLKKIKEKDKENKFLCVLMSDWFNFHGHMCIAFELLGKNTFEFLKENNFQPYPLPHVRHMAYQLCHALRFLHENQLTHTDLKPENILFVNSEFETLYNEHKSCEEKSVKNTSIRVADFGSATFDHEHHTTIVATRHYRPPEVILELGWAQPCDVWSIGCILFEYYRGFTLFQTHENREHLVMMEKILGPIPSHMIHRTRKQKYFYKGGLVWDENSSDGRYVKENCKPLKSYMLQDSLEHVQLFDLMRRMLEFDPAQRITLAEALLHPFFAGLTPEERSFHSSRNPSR
T2 sequence (Q00535 whole entry): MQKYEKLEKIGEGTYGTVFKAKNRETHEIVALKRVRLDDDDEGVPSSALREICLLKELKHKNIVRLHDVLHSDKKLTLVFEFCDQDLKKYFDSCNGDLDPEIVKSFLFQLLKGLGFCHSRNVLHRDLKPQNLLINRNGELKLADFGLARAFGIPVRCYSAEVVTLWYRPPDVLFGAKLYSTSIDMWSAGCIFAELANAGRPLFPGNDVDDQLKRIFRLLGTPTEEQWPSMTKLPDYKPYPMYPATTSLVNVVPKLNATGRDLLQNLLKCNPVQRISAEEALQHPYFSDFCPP
T2 sequence (Q15078 99-307 partner limits assumed): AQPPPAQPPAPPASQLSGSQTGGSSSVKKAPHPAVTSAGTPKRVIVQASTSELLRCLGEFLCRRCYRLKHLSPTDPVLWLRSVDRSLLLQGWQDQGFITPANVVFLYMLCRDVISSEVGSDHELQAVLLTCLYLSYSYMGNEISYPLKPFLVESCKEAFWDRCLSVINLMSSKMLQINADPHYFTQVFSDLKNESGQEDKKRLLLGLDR

Structure (SMILES)	Residual enzyme activity CDK1/cyclin B (CDK1/cyclin B) [%]	Residual enzyme activity CDK2/cyclin A (CDK2/cyclin A) [%]	Residual enzyme activity CDK5/p25 (CDK5/p25) [%]	Residual enzyme activity CK1 (CK1δ/ε) [%]	Residual enzyme activity DYRK 1A (DYRK1A) [%]	Residual enzyme activity DYRK 1B (DYRK1B) [%]	Residual enzyme activity DYRK 2 (DYRK2) [%]	Residual enzyme activity DYRK 3 (DYRK3) [%]	Residual enzyme activity GSK3 (GSK-3) [%]	Residual enzyme activity CDK9/cyclin T (CDK9/cyclin T) [%]	Residual enzyme activity CLK 1 (CLK1) [%]	Residual enzyme activity CLK 2 (CLK2) [%]	Residual enzyme activity CLK 3 (CLK3) [%]	Residual enzyme activity CLK 4 (CLK4) [%]	further results
O=C1NCc2c(-c3cccc(F)c3)cc3c(-c4ccccc4)c[nH]c3c21 [17c, 5-(3-Fluorophenyl)-3-phenyl-6,7-dihydropyrrolo[3,4-g]indol-8(1H)-one]															IC50 (CDK1/cyclin B): > 10 µM; IC50 (CDK2/cyclin A): > 10 µM; IC50 (CDK5/p25): > 10 µM; IC50 (CK1δ/ε): > 10 µM; IC50 (DYRK1A): > 10000 nM; IC50 (DYRK1B): > 10000 nM; IC50 (DYRK2): > 10000 nM; IC50 (DYRK3): > 10 µM; IC50 (GSK-3): > 10 µM; IC50 (CDK9/cyclin T): > 10 µM; IC50 (CLK1): 7.2 µM; IC50 (CLK2): > 10000 nM; IC50 (CLK3): > 10000 nM; IC50 (CLK4): 3200 nM
CCc1[nH]c2c3c(ccc2c1C)CNC3=O [S18a]	94±13	99±8	100±9	50±6	54±1	46±8	42±12	65±9	97±3	93±5	20±2	31±4	92±12	7±2	
Cc1[nH]c2c3c(ccc2c1C)CNC3=O [S18b]	93±26	103±2	111±18	75±3	82±5	77±11	61±4	89±8	135±18	104±7	92±8	63±17	104±14	48±6	
Cc1c(-c2ccccc2)[nH]c2c3c(ccc12)CNC3=O [S18c]	77±26	109±8	105±11	57±5	58±7	50±7	57±25	91±17	112±2	89±6	29±4	30±1	93±9	10±0	
CCc1c(-c2ccccc2)[nH]c2c3c(ccc12)CNC3=O [S18d]	109±30	104±2	112±11	86±3	74±14	65±8	50±6	87±5	111±7	100±10	66±3	66±5	110±16	38±3	
Cc1ccc(-c2[nH]c3c4c(ccc3c2C)CNC4=O)cc1 [S18e]	100±20	102±9	114±11	84±7	99±16	85±7	75±11	92±9	120±31	101±3	105±12	77±6	105±10	64±9	
Cc1[nH]c2c3c(ccc2c1C)C(=O)NC3=O [S19]	81±27	108±8	94±4	65±5	41±8	39±5	20±5	57±3	51±5	90±5	52±10	33±7	91±11	21±1	
O=C1NCc2ccc3c(-c4ccccc4)c(Br)[nH]c3c21 [compound 16, 2-Bromo-3-phenyl-6,7-dihydropyrrolo[3,4-g]indol-8(1H)-one]															IC50 (CDK1/cyclin B): > 10 µM; IC50 (CDK2/cyclin A): > 10 µM; IC50 (CDK5/p25): > 10 µM; IC50 (CK1δ/ε): > 10 µM; IC50 (DYRK1A): 1900 nM; IC50 (DYRK1B): 1300 nM; IC50 (DYRK2): 1800 nM; IC50 (DYRK3): 3.9 µM; IC50 (GSK-3): > 10 µM; IC50 (CDK9/cyclin T): > 10 µM; IC50 (CLK1): 0.11 µM; IC50 (CLK2): 110 nM; IC50 (CLK3): 2800 nM; IC50 (CLK4): 29 nM
